{"source": "patent US20080194483A1", "about": "“GLP-1 (9-36) methods and compositions” (priority 2003, published 2008)", "key": {"[1]": {"test_system": "bovine aortic endothelial cells (BAECs)", "assay": "Hyperglycemia-induced intracellular ROS (CM-H2DCFDA) in cultured vascular endothelial cells", "type": "cell-based", "method": "Cell culture conditions. For reactive oxygen species (RO) measurement, bovine aortic endothelial cells (BAECs, passage 4-10) were plated in 96 well plates at 100,000 cells/well in Eagle's MEM containing 10% FBS, essential and nonessential amino acids, and antibiotics. Cells were incubated with either 5 mM glucose, 30 mM glucose, 30 mM glucose plus 10 nM GLP-1 (7-36), 30 mM glucose plus 10 nM GLP-1 (7-36), 30 mM glucose plus 10 nM GLP-1 (7-36) plus 10 μM pyrrolidide (a DPP IV inhibitor), 30 mM glucose plus 10 nM GLP-1 (7-36) plus 10 μM pyrrolidide and 100 μM phosphoramidon (a neutral endopeptidase 24.11 inhibitor), and 30 mM glucose plus GLP-1 (9-36) plus 10 nM exendin 9-39, a blocker of the GLP-1 (7-36) receptor. The pyrrolidide, phosphoramidon, and exendin 9-39 were each added to the cells four hours before the addition of the peptides. The ROS measurements were performed 24 hrs later.\nIntracellular reactive oxygen species measurements. The intracellular formation of reactive oxygen species was detected using the fluorescent probe CM-H2DCFDA (Molecular Probes). Cells (1×10^5 ml^−1) were loaded with 10 μM CM-H2DCFDDA, incubated for 45 min at 37° C., and analysed in an HTS 7000 Bio Assay Fluorescent Plate Reader (Perkin Elmer) using the HTSoft program. ROS production was determined from an H2O2 standard curve (10-200 nmol ml^−1)."}, "[2]": {"test_system": "human aortic endothelial cells (HAEC)", "assay": "Nutrient-induced ROS (CM-H2DCFDA) in human aortic endothelial cells", "type": "cell-based", "method": "Cell Culture conditions. Confluent HAECs (passage 1-6) were maintained in EGM2 media containing 0.4% FBS plus growth factor additives. Cells were incubated for varying times with either 5 mM glucose, 12 mM glucose, or 5 mM glucose plus 800 μM oleic acid and 1 mM albumin. In other experiments, cells were incubated with 5 mM glucose, 12 mM glucose, or 5 mM glucose plus 800 μM oleic acid and 1 mM albumin, alone, or with either 100 pM GLP-1 (7-36 NH2), GLP-1 (7-36 NH2)+ the DPPIV inhibitor H-lys(4-nito-Z)-pyrrolidide and the neutral endopeptidase inhibitor phosphoramidon, GLP-1 (9-36 NH2), GLP-1 (9-36 NH2) plus the GLP-1 receptor blocker […], and with GLP-1 (9-36 NH2) with 100× GLP-1 (7-36 NH2) and both DPPIV and NEP inhibitors. Cells were pre incubated for four hrs in cycloheximide (5 ug/ml). In experiments using clotrimazole cells were preincubated for 2.5 hrs in serum free media. Reactive oxygen species quantification. Cells were plated in 96-well cell culture plates. Intracellular reactive oxygen species were detected using the fluorescent probe CM-H2DCFDA (Molecular Probes). Cells were loaded with 10 μM CM-H2DCFDA, incubated for 45 min at 37° C., and analyzed with an HTS 7000 Bio Assay Fluorescent Plate Reader (Perkin Elmer) using the HTSoft program."}, "[3]": {"test_system": "endothelial nitric oxide synthase (eNOS)", "assay": "eNOS activity ([3H]L-arginine to [3H]L-citrulline) in cultured vascular endothelial cells", "type": "cell-based, bovine", "conditions": "BAECs", "method": "Cell-culture conditions. For measurement of endothelial nitric oxide activity (eNOS), bovine aortic endothelial cells (BAECs, passage 4-10) were plated in 24 well plates at 200,000 cells /well in Eagle's MEM containing 10% FBS, essential and nonessential amino acids, and antibiotics. Cells were incubated with either 5 mM glucose, 30 mM glucose, 30 mM glucose plus 10 nM GLP-1 (7-36), 30 mM glucose plus 10 nM GLP-1 (7-36) plus 10 μM pyrrolidide (a DPP IV inhibitor) (not shown in FIG. 2), 30 mM glucose plus 10 nM GLP-1 (7-36) plus 10 μM pyrrolidide and 100 μM phosphoramidon (a neutral endopeptidase 24.11 inhibitor), 30 mM glucose+GLP-1 (9-36), and 30 mM glucose plus GLP-1 (9-36) plus 10 nM exendin 9-39, a blocker of the GLP-1 (7-36) receptor. The pyrrolidide, phosphoramidon, and exendin 9-39 were each added to the cells four hours before the addition of the peptides. eNOS activity measurements were performed 48 hrs later. Measurement of eNOS activity. eNOS activity in cells was determined by first incubating cells in L-arginine-deficient, serum-free MEM media for 6 hours. […] The eluate was collected in glass scintillation vials for [^3H]L-citrulline quantitation by liquid scintillation spectroscopy."}, "hepatocytes": {"test_system": "hepatocytes", "type": "cell-based", "method": "An experiment similar to that described in Example 1 was performed, using hepatocytes rather than endothelial cells."}, "rat hepatocytes": {"test_system": "rat hepatocytes", "assay": "Gluconeogenesis (glucose production) in isolated rat liver cells", "type": "cell-based", "conditions": "liver cells of non-diabetic control strain rats, 1000 pM insulin without GLP-1(9-36), 24 hours", "method": "Liver cells were isolated from non-diabetic control strain rats and from SDF rats. Single-cell suspensions of hepatocytes were obtained from perfusions using the procedure of Berry and Friend (1969) and the perfusion mixture of […] et al. (1979). The cells were plated on tissue culture plastic for 6 hours at a density of 2×10^5 cells per well in a 24-well culture plate that was pre-coated with rat-tail collagen I. During plating, cells were cultured in RPMI 1640 medium supplemented with 10% FBS, penicillin/streptomycin, 10 μg/ml insulin and 10 μM dexamethasone. After allowing for adherence, the media was changed to RPMI with 5 mM glucose, 0.4% FCS, and no insulin or dexamethasone. The cells were allowed to equilibrate overnight in this low-glucose media. The following morning this media was refreshed, insulin alone, or insulin and GLP-1(9-36) were added and treatment lasted another 24 hours. After stimulation, glucose production was measured by incubating the cells for 6 hours in glucose-free RPMI containing 5 mM each of alanine, valine, glycine, pyruvate and lactate. Glucose was subsequently measured with a Trinder assay (Sigma). Averages were obtained of 4 independent measurements."}}, "note": "Where no end group is shown, it is not given here.", "data": [{"compound": "GLP-1 (7-36) (HAEGTFTSDVSSYLEGQAAKEFIAWLVKGR-NH2; UniProt P01275 98-127, looked up, fragment)", "values": [{"measurement": "hyperglycemia-induced ROS production when GLP-1 degradation is blocked", "setting": "[1]; 30 mM glucose, 10 nM peptide plus 10 μM pyrrolidide (DPP IV inhibitor) with or without 100 μM phosphoramidon (FIG. 1, bars 4 and 5)", "result": "no effect"}, {"measurement": "hyperglycemia-induced ROS production", "setting": "[1]; 30 mM glucose, peptide alone, ROS measured 24 hrs later (FIG. 1)", "result": "completely prevents"}, {"measurement": "high glucose-induced ROS in the presence of DPP-4 and neutral endopeptidase 24.11 inhibitors", "setting": "[2]; 12 mM glucose, 2 hrs, with protease inhibitors", "result": "no effect"}, {"measurement": "effect of 100-fold excess bioactive GLP-1 on ability of GLP-1 [9-36amide] to prevent nutrient-induced ROS", "setting": "[2]; GLP-1 (9-36 NH2) with 100× GLP-1 (7-36 NH2) and both DPPIV and NEP inhibitors", "result": "did not affect"}, {"measurement": "hyperglycemia-induced decrease in eNOS activity when GLP-1 (7-36) degradation is blocked", "setting": "[3]; 30 mM glucose, 10 nM peptide plus 10 μM pyrrolidide and 100 μM phosphoramidon (FIG. 2, bar 4)", "result": "no effect"}]}, {"compound": "CC[C@H](C)[C@H](NC(=O)[C@H](Cc1ccccc1)NC(=O)[C@H](CCC(=O)O)NC(=O)[C@H](CCCCN)NC(=O)[C@H](C)NC(=O)[C@H](C)NC(=O)[C@H](CCC(N)=O)NC(=O)CNC(=O)[C@H](CCC(=O)O)NC(=O)[C@H](CC(C)C)NC(=O)[C@H](Cc1ccc(O)cc1)NC(=O)[C@H](CO)NC(=O)[C@H](CO)NC(=O)[C@@H](NC(=O)[C@H](CC(=O)O)NC(=O)[C@H](CO)NC(=O)[C@@H](NC(=O)[C@H](Cc1ccccc1)NC(=O)[C@@H](NC(=O)CNC(=O)[C@@H](N)CCC(=O)O)[C@@H](C)O)[C@@H](C)O)C(C)C)C(=O)N[C@@H](C)C(=O)N[C@@H](Cc1c[nH]c2ccccc12)C(=O)N[C@@H](CC(C)C)C(=O)N[C@H](C(=O)N[C@@H](CCCCN)C(=O)NCC(=O)N[C@@H](CCCNC(=N)N)C(N)=O)C(C)C", "note": "[GLP-1 (9-36)]", "values": [{"measurement": "hyperglycemia-induced ROS formation in hepatocytes", "setting": "hepatocytes", "result": "inhibited"}]}, {"compound": "insulin", "values": [{"measurement": "gluconeogenesis, % of control levels", "setting": "rat hepatocytes", "result": "46 % of control levels"}]}, {"compound": "exendin 9-39 [e9-39]", "values": [{"measurement": "effect of GLP-1 receptor blockade on inhibition of hyperglycemia-induced ROS by GLP-1 (9-36)", "setting": "[1]; 30 mM glucose plus GLP-1 (9-36) plus 10 nM exendin 9-39", "result": "no effect"}, {"measurement": "effect of GLP-1R antagonist on ability of GLP-1 degradation products to prevent glucose-induced ROS", "setting": "[2]; 12 mM glucose, GLP-1 (9-36 NH2) plus receptor blocker", "result": "no effect"}, {"measurement": "effect of GLP-1 receptor blockade on GLP-1 (9-36) protection of eNOS activity", "setting": "[3]; 30 mM glucose plus GLP-1 (9-36) plus 10 nM exendin 9-39 (FIG. 2, bar 6)", "result": "no effect"}]}]}
